CC50 and EC50 data for eleven compounds are collected here from US12594276B2, “Inhibitors of human immunodeficiency virus replication” (ViiV Healthcare UK (No.5) Limited, priority 2024, dated 2026).

The term CC50 denotes the concentration giving 50% cytotoxicity. For orientation: EC50 means the concentration at which the effect is half-maximal.

Series [1] can be described thus: Compound cytotoxicity, XTT-based colorimetric assay. The note with it: human; uninfected MT2 cells, day 4, XTT; read-out: CC50. The format is cell-based. The procedure, abridged: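 Follows the antiviral assay procedure, but with uninfected MT2 cells. On day 4, cell viability is measured by XTT-based colorimetry, giving CC50 values.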
Series [2] concerns recombinant NL4-3 virus (nef section replaced with Renilla luciferase gene) in MT-2 cells. Briefly: HIV cell culture assay (antiviral activity, luciferase readout). Conditions: Renilla, NL43, MT-2 cells infected for 4-5 days with recombinant NL4-3 Renilla luciferase virus. Type of series: cell-based. In short, it runs like this: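 Read-out: Renilla luciferase (live-cell substrate) in infected MT-2 cells after 4-5 d with serial compound dilutions. Virus from 293T transfection of the proviral clone, titered by luciferase in MT-2. EC50 via median effect equation fit.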

As to `CS(=O)(=O)Nc1nn(CCN2CC(F)(F)C2)c2c(-n3c([C@H](Cc4cc(F)cc(F)c4)NC(=O)Cn4nc(C(F)F)c5c4C(F)(F)[C@@H]4C[C@H]54)nc4nc(C5CCC(F)(F)CC5)cc(C(F)F)c4c3=O)ccc(Cl)c12` (atropisomer, axis not shown; (P)) [Example 307, N-[(1S)-1-[(3P)-3-{4-chloro-1-[2-(3,3-difluoroazetidin-1-yl)ethyl]-3-methanesulfonamido-1H-indazol-7-yl}-7-(4,4-difluorocyclohexyl)-5-(difluoromethyl)-4-oxo-3H,4H-pyrido[2,3-d]pyrimidin-2-yl]-2-(3,5-difluorophenyl)ethyl]-2-[(2S,4R)-9-(difluoromethyl)-5,5-difluoro-7,8-diazatricyclo[4.3.0.0^2,^4]nona-1(6),8-dien-7-yl]acetamide], the CC50 at 4 days in series [1] is over 50 nM. In addition, in series [2], the concentration giving a half-maximal response (EC50) is 0.023 nM.

As for `Cc1cc(C2(F)CCC(F)(F)CC2)nc2nc([C@H](Cc3cc(F)cc(F)c3)NC(=O)Cn3nc(C4CC4)c4c3C[C@@H]3C[C@H]43)n(-c3ccc(Cl)c4c(NS(C)(=O)=O)nn(CCN5C[C@H](F)C[C@H](F)C5)c34)c(=O)c12` (atropisomer, axis not shown; (P)) [Example 12, N-[(1S)-1-[(3P)-3-(4-chloro-1-{2-[(3R,5S)-3,5-difluoropiperidin-1-yl]ethyl}-3-methanesulfonamido-1H-indazol-7-yl)-5-methyl-4-oxo-7-(1,4,4-trifluorocyclohexyl)-3H,4H-pyrido[2,3-d]pyrimidin-2-yl]-2-(3,5-difluorophenyl)ethyl]-2-[(2S,4S)-9-cyclopropyl-7,8-diazatricyclo[4.3.0.0^2,4]nona-1(6),8-dien-7-yl]acetamide], in series [1], the CC50 at 4 days was over 20000 nM. Besides, the EC50 in series [2] stood at 0.012 nM.

Regarding `CS(=O)(=O)Nc1nn(CCN2CC(C(F)F)C2)c2c(-n3c([C@H](Cc4cc(F)cc(F)c4)NC(=O)Cn4nc(C(F)F)c5c4C(F)(F)[C@@H]4C[C@H]54)nc4nc(C5CCC(F)(F)CC5)cc(C(F)F)c4c3=O)ccc(Cl)c12` (atropisomer, axis not shown; (P)) [Example 315, N-[(1S)-1-[(3P)-3-(4-chloro-1-{2-[3-(difluoromethyl)azetidin-1-yl]ethyl}-3-methanesulfonamido-1H-indazol-7-yl)-7-(4,4-difluorocyclohexyl)-5-(difluoromethyl)-4-oxo-3H,4H-pyrido[2,3-d]pyrimidin-2-yl]-2-(3,5-difluorophenyl)ethyl]-2-[(2S,4R)-9-(difluoromethyl)-5,5-difluoro-7,8-diazatricyclo[4.3.0.0^2,^4]nona-1(6),8-dien-7-yl]acetamide], the CC50 at 4 days in series [1] was over 50 nM. Also, the EC50 in series [2] came out at 0.025 nM.

Regarding `COC[C@H]1CN(CCn2nc(NS(C)(=O)=O)c3c(Cl)ccc(-n4c([C@H](Cc5cc(F)cc(F)c5)NC(=O)Cn5nc(C(F)F)c6c5C(F)(F)[C@@H]5C[C@H]65)nc5nc(C6CCC(F)(F)CC6)ccc5c4=O)c32)CCO1` (atropisomer, axis not shown; (P)) [Example 356, N-[(1S)-1-[(3P)-3-(4-chloro-3-methanesulfonamido-1-{2-[(2R)-2-(methoxymethyl)morpholin-4-yl]ethyl}-1H-indazol-7-yl)-7-(4,4-difluorocyclohexyl)-4-oxo-3H,4H-pyrido[2,3-d]pyrimidin-2-yl]-2-(3,5-difluorophenyl)ethyl]-2-[(2S,4R)-9-(difluoromethyl)-5,5-difluoro-7,8-diazatricyclo[4.3.0.0^2,^4]nona-1(6),8-dien-7-yl]acetamide], the CC50 at 4 days in series [1] was over 50 nM. In series [2], the EC50 stood at 0.029 nM.

With `COCCCn1nc(NS(C)(=O)=O)c2c(Cl)ccc(-n3c([C@H](Cc4cc(F)cc(F)c4)NC(=O)Cn4nc(C(F)F)c5c4C(F)(F)[C@@H]4C[C@H]54)nc4nc(C5CCC(F)(F)CC5)cc(NC[C@@H]5CCCOC5)c4c3=O)c21` (atropisomer, axis not shown; (P)) [Example 428, N-[(1S)-1-[(3P)-3-[4-chloro-3-methanesulfonamido-1-(3-methoxypropyl)-1H-indazol-7-yl]-7-(4,4-difluorocyclohexyl)-5-({[(3S)-oxan-3-yl]methyl}amino)-4-oxo-3H,4H-pyrido[2,3-d]pyrimidin-2-yl]-2-(3,5-difluorophenyl)ethyl]-2-[(2S,4R)-9-(difluoromethyl)-5,5-difluoro-7,8-diazatricyclo[4.3.0.0^2,^4]nona-1(6),8-dien-7-yl]acetamide], the CC50 at 4 days in series [1] is over 20 nM. Moreover, the EC50 in series [2] is 0.02 nM.

Consider `Cc1cc(C2CCC(F)(F)CC2)nc2nc([C@H](Cc3cc(F)cc(F)c3)NC(=O)Cn3nc(C4CC4)c4c3C[C@@H]3C[C@H]43)n(-c3ccc(Cl)c4c(NS(C)(=O)=O)nn(CCN5CC(F)(F)C(F)(F)C5)c34)c(=O)c12` (atropisomer, axis not shown; (P)) [Example 248, N-[(1S)-1-[(3P)-3-{4-chloro-3-methanesulfonamido-1-[2-(3,3,4,4-tetrafluoropyrrolidin-1-yl)ethyl]-1H-indazol-7-yl}-7-(4,4-difluorocyclohexyl)-5-methyl-4-oxo-3H,4H-pyrido[2,3-d]pyrimidin-2-yl]-2-(3,5-difluorophenyl)ethyl]-2-[(2S,4S)-9-cyclopropyl-7,8-diazatricyclo[4.3.0.0^2,^4]nona-1(6),8-dien-7-yl]acetamide], for which the CC50 at 4 days in series [1] was over 50 nM. Moreover, the EC50 in series [2] stood at 0.018 nM.

Take `Cc1cc(C2(F)CCC(F)(F)CC2)nc2nc([C@H](Cc3cc(F)cc(F)c3)NC(=O)Cn3nc(C(F)(F)F)c4c3C(F)(F)[C@@H]3C[C@H]43)n(-c3ccc(Cl)c4c(NS(C)(=O)=O)nn(CCN5C[C@H](F)C[C@H](F)C5)c34)c(=O)c12` (atropisomer, axis not shown; (P)) [Example 569, N-[(1S)-1-[(3P)-3-(4-chloro-1-{2-[(3R,5S)-3,5-difluoropiperidin-1-yl]ethyl}-3-methanesulfonamido-1H-indazol-7-yl)-5-methyl-4-oxo-7-(1,4,4-trifluorocyclohexyl)-3H,4H-pyrido[2,3-d]pyrimidin-2-yl]-2-(3,5-difluorophenyl)ethyl]-2-[(2S,4R)-5,5-difluoro-9-(trifluoromethyl)-7,8-diazatricyclo[4.3.0.0^2,^4]nona-1(6),8-dien-7-yl]acetamide]: in series [1], the CC50 at 4 days was over 20 nM. Also, the EC50 in series [2] stood at 0.012 nM.

As to `COCCCn1nc(NS(C)(=O)=O)c2c(Cl)ccc(-n3c([C@H](Cc4cc(F)cc(F)c4)NC(=O)Cn4nc(C(F)F)c5c4C(F)(F)[C@@H]4C[C@H]54)nc4nc(C5CCC(F)(F)CC5)cc(C)c4c3=O)c21` (atropisomer, axis not shown; (P)) [Example 90, N-[(1S)-1-[(3P)-3-[4-chloro-3-methanesulfonamido-1-(3-methoxypropyl)-1H-indazol-7-yl]-7-(4,4-difluorocyclohexyl)-5-methyl-4-oxo-3H,4H-pyrido[2,3-d]pyrimidin-2-yl]-2-(3,5-difluorophenyl)ethyl]-2-[(2S,4R)-9-(difluoromethyl)-5,5-difluoro-7,8-diazatricyclo[4.3.0.0^2,^4]nona-1(6),8-dien-7-yl]acetamide], in series [1], the CC50 at 4 days was over 50 nM. In series [2], the EC50 amounted to 0.018 nM.

Take `Cc1cc(C2CCC(F)(F)CC2)nc2nc([C@H](Cc3cc(F)cc(F)c3)NC(=O)Cn3nc(C4CC4)c4c3C[C@@H]3C[C@H]43)n(-c3ccc(Cl)c4c(NS(C)(=O)=O)nn(CCN5CC6(CCC6)OC6(CCC6)C5)c34)c(=O)c12` (atropisomer, axis not shown; (P)) [Example 445, N-[(1S)-1-[(3P)-3-[4-chloro-3-methanesulfonamido-1-(2-{5-oxa-11-azadispiro[3.1.3^6.3^4]dodecan-11-yl}ethyl)-1H-indazol-7-yl]-7-(4,4-difluorocyclohexyl)-5-methyl-4-oxo-3H,4H-pyrido[2,3-d]pyrimidin-2-yl]-2-(3,5-difluorophenyl)ethyl]-2-[(2S,4S)-9-cyclopropyl-7,8-diazatricyclo[4.3.0.0^2,^4]nona-1(6),8-dien-7-yl]acetamide]: the CC50 at 4 days in series [1] is over 20 nM. Also, the EC50 in series [2] came out at 0.015 nM.

For `CCc1cc(C2CCC(F)(F)CC2)nc2nc([C@H](Cc3cc(F)cc(F)c3)NC(=O)Cn3nc(C(F)F)c4c3C(F)(F)[C@@H]3C[C@H]43)n(-c3ccc(Cl)c4c(NS(C)(=O)=O)nn(CCCOC)c34)c(=O)c12` (atropisomer, axis not shown; (P)) [Example 638, N-[(1S)-1-[(3P)-3-[4-chloro-3-methanesulfonamido-1-(3-methoxypropyl)-1H-indazol-7-yl]-7-(4,4-difluorocyclohexyl)-5-ethyl-4-oxo-3H,4H-pyrido[2,3-d]pyrimidin-2-yl]-2-(3,5-difluorophenyl)ethyl]-2-[(2S,4R)-9-(difluoromethyl)-5,5-difluoro-7,8-diazatricyclo[4.3.0.0^2,^4]nona-1(6),8-dien-7-yl]acetamide], the CC50 at 4 days in series [1] is over 50 nM. In addition, in series [2], the EC50 came out at 0.018 nM.

Take `COCCCn1nc(NS(C)(=O)=O)c2c(Cl)ccc(-n3c([C@H](Cc4cc(F)cc(F)c4)NC(=O)Cn4nc(C(F)F)c5c4C(F)(F)[C@@H]4C[C@H]54)nc4nc(C5CCC(F)(F)CC5)cc(NCCN5CCC(F)(F)C5)c4c3=O)c21` (atropisomer, axis not shown; (P)) [Example 552, N-[(1S)-1-[(3P)-3-[4-chloro-3-methanesulfonamido-1-(3-methoxypropyl)-1H-indazol-7-yl]-7-(4,4-difluorocyclohexyl)-5-{[2-(3,3-difluoropyrrolidin-1-yl)ethyl]amino}-4-oxo-3H,4H-pyrido[2,3-d]pyrimidin-2-yl]-2-(3,5-difluorophenyl)ethyl]-2-[(2S,4R)-9-(difluoromethyl)-5,5-difluoro-7,8-diazatricyclo[4.3.0.0^2,^4]nona-1(6),8-dien-7-yl]acetamide]: the CC50 at 4 days in series [1] was over 20 nM. Further, the EC50 in series [2] came to 0.006 nM.
